Measured values taken from ChEMBL document CHEMBL1150897, “Antioxidant flavonoid glycosides from Daphniphyllum calycinum” (J Nat Prod, 1998).
≈ marks a conversion by molar mass, not a printed value.

tested on: Radical scavenging activity; experiment: Antioxidant activity assessed as DPPH free radical scavenging activity; assay type: functional

Row | Structure (SMILES) | IC50
1 | O=C(O)c1cc(O)c(O)c(O)c1 [GALLIC ACID] | 5 µg/mL (≈ 29.4 µM)
2 | O=C(O)/C=C/c1ccc(O)c(O)c1 [CAFFEIC ACID] | 12 µg/mL (≈ 66.6 µM)
3 | COc1ccc(O)c(C(C)(C)C)c1.COc1ccc(O)cc1C(C)(C)C [BUTYLATED HYDROXYANISOLE] | 21 µg/mL
4 | C[C@H]1O[C@H](O[C@H]2[C@H](Oc3c(-c4ccc(O)cc4)oc4cc(O)cc(O)c4c3=O)O[C@H](CO)[C@@H](O)[C@@H]2O)[C@@H](O)[C@@H](O)[C@@H]1O | 79.6 µg/mL (≈ 134 µM)
5 | CC(Cc1ccc(O)c(O)c1)C(C)Cc1ccc(O)c(O)c1 (configuration not stated) [NORDIHYDROGUAIARETIC ACID] | 12 µg/mL (≈ 39.7 µM)
6 | C[C@@H]1O[C@@H](OC[C@H]2O[C@@H](Oc3c(-c4ccc(O)cc4)oc4cc(O)c(O)c(O)c4c3=O)[C@H](O)[C@@H](O)[C@@H]2O)[C@H](O)[C@H](O)[C@H]1O | 43.2 µg/mL (≈ 70.8 µM)
7 | O=C1O[C@H]([C@@H](O)CO)C(O)=C1O [ASCORBIC ACID] | 22 µg/mL (≈ 125 µM)
